This is an account of results in US8410113B2, “(2R)-1-(3-chloro-2-pyrazinyl)-2-methylpiperazine and salts thereof” (Biovitrum AB (publ), priority 2002, dated 2013).

A short description of data set [1]: Crystallinity (X-rays / powder X-ray diffraction). The class given is physicochemical. To be noted: for Crystallinity (Powder X-Ray Diffraction): salts of Example 2C; for Crystallinity (X-Rays): salts of Example 2A; for degree of crystallinity (Powder X-Ray Diffraction): salts of Example 2B, fumarate.
Description: (§1) Crystallinity (Powder X-Ray Diffraction)
as §1

Data set [2] in a line: Hygroscopicity (DVS, storage at RT/different RHs and at 40° C./75% RH). The class given is physicochemical. The method, then:
Hygroscopicity (DVS, Storage at RT/Different RHs and at 40° C./75% RH)

For data set [3] the following is noted: controlled studies; cited from earlier work.
Data set [4] is described as follows: Chemical stability (2 weeks at 65° C.). The class given is physicochemical. As to conditions: salts of Example 2A, also RT/90% RH. Here is the method:
Chemical Stability (2 Weeks at 65° C.)

The nature of data set [5]: Polymorphism screen (RT evaporation, cooling crystallization at −20° C.). The class given is physicochemical. As to conditions: salts of Example 2A, cooling crystallization at −20° C. in different solvent or mixtures.
The nature of data set [6]: Intrinsic dissolution rate. The class given is physicochemical. As to conditions: for intrinsic dissolution rate (in words, order): salts of Example 2B. The text has this: Intrinsic Dissolution Rate (pH 1.2)
(§2) Solubility and Intrinsic Dissolution Rate

A further data set can be described thus: Solubility.
Description: Solubility (Water, pH 1.2 and pH 7.4 Buffers)
as §2

The conditions of data set [7]: assessment, no test described, cited from earlier work.
Data set [8] is described as follows: Chemical stability during storage. As to conditions: long term storage; free base vs hydrochloride.
Where [9] appears, read: salts of Example 2A, DVS, storage at RT/different RHs.
[10] abbreviates: salts of Example 2C, purified water, preliminary studies.
The mark [11] stands for this setting: listed as L-malate, L-malate salt.

Entries after “also recorded” stand apart in the source; their conditions may differ. Where two headings read alike, the source gives them in different places.

For the compound `C[C@@H]1CNCCN1c1nccnc1OCCOc1cccnc1OCCN(C)C.O=C(O)C(O)C(O)C(=O)O` [D-tartrate, (2R)-1-[3-(2-{[2-(2-dimethylaminoethoxy)-3-pyridinyl]oxy}ethoxy)-2-pyrazinyl]-2-methylpiperazine, D-tartrate], the “Crystallinity (Powder X-Ray Diffraction)” value in data set [1] is “low degree of crystallinity”. The Hygroscopicity result in data set [2] (salts of Example 2C) is “very hygroscopic and deliquescent”.

On to `CCN[C@@H](C)Cc1cccc(C(F)(F)F)c1` [dexfenfluramine], for which, in data set [3], the weight reduction entry is “weight reduction”.

Take `C[C@@H]1CNCCN1c1nccnc1OCCOc1cccnc1.O=C(O)c1ccccc1` [benzoate, (2R)-methyl-1-{3-[2-(3-pyridinyloxy)ethoxy]-2-pyrazinyl}piperazine, benzoate]: in [1], the “Crystallinity (X-Rays)” value is on record as “Positive results”. Besides, in data set [2] (setting [9]), the Hygroscopicity result is “cake formation and darkening”. The Chemical stability entry in data set [4] is recorded as “Positive data”. For the same compound, the Polymorphism entry in data set [5] is “did not show other polymorphs”.

For “(2R)-methyl-1-{3-[2-(3-pyridinyloxy)ethoxy]-2-pyrazinyl}piperazine, cinnamate”, the “Crystallinity (X-Rays)” value in data set [1] is “Positive results”. Also, the “behavior upon exposition to 40° C./75% RH” value in data set [2] (salts of Example 2A) is “good behavior”. The “Intrinsic dissolution rate (IDR)” value in data set [6] (salts of Example 2A, pH 1.2) is 10^−3 mgsec^−1 cm^−2. Moreover, the Chemical stability entry in data set [4] is listed as “Positive data”.

In the case of `C[C@@H]1CNCCN1c1nccnc1OCCOc1cccnc1OCCN(C)C.O=C(O)CN(CCN(CC(=O)O)CC(=O)O)CC(=O)O` [edeteate, (2R)-1-[3-(2-{[2-(2-dimethylaminoethoxy)-3-pyridinyl]oxy}ethoxy)-2-pyrazinyl]-2-methylpiperazine, edeteate], the “Crystallinity (Powder X-Ray Diffraction)” value in data set [1] is reported as “practically amorphous”. Also, in data set [2] (salts of Example 2C), the Hygroscopicity entry is “very hygroscopic and deliquescent”.

The term solubility denotes the concentration that dissolves in the medium under given conditions. The melting point is the temperature, or range, at which the solid turns liquid. The compound `C[C@@H]1CNCCN1c1nccnc1OCCOc1cccnc1OCCN(C)C.O=P(O)(O)O` [Example 3C, (2R)-1-[3-(2-{[2-(2-dimethylaminoethoxy)-3-pyridinyl]oxy}ethoxy)-2-pyrazinyl]-2-methylpiperazine, phosphoric acid salt] came in with a melting point of 140 to 168 °C. Moreover, the “Crystallinity (Powder X-Ray Diffraction)” value in [1] is “predominantely crystalline to moderately crystallinity; also recorded: high crystallinity”. For the same compound, in data set [2] (salts of Example 2C), the Hygroscopicity result was “low and low hygroscopicity”. For the same compound, in the data set “Solubility” (salts of Example 2C), the “solubility (in words, comparison of salts)” value is listed as “high solubility”. Also, in the data set “Solubility” (water), the solubility is at least 590 mg/mL. For the same compound, the Toxicological acceptability result in [7] (salts of Example 2C) is “low toxicity”.

Consider “(2R)-1-[3-(2-{[2-(2-dimethylaminoethoxy)-3-pyridinyl]oxy}ethoxy)-2-pyrazinyl]-2-methylpiperazine, 1,3,5-benzenetricarboxylate”, for which the “Crystallinity (Powder X-Ray Diffraction)” value in [1] is recorded as “predominantly crystalline”. Further, in data set [2] (salts of Example 2C), the Hygroscopicity entry is recorded as “low”. Also, the “solubility (in words, comparison of salts)” value in “Solubility” (salts of Example 2C) is listed as “lower than for the phosphoric acid salt”. Besides, the solubility in the data set “Solubility” (salts of Example 2C, SGF (simulated gastric fluid without enzymes; pH of filtrate 2.9), preliminary studies) is above 19 mg/mL; in the data set “Solubility” (salts of Example 2C, SIF (simulated intestinal fluid without enzymes; pH of filtrate 4.2), preliminary studies) it was 11 mg/mL; in the data set “Solubility” (setting [10]), “≈ 4 mg/ml”.

For the compound `C[C@@H]1CNCCN1c1nccnc1OCCOc1cccnc1OCCN(C)C.O=C(O)C(=O)O` [oxalate, (2R)-1-[3-(2-{[2-(2-dimethylaminoethoxy)-3-pyridinyl]oxy}ethoxy)-2-pyrazinyl]-2-methylpiperazine, oxalate], in data set [1], the “Crystallinity (Powder X-Ray Diffraction)” value is on record as “high degree of crystallinity”. Also, the Hygroscopicity entry in data set [2] (salts of Example 2C) is given as “low”. Besides, in [7] (salts of Example 2C), the Toxicological acceptability entry was “inappropriate due to toxicological reasons”.

For the compound `C[C@@H]1CNCCN1c1nccnc1OCCOc1cccnc1OCCN(C)C.O=C(O)CCC(=O)O` [succinate, (2R)-1-[3-(2-{[2-(2-dimethylaminoethoxy)-3-pyridinyl]oxy}ethoxy)-2-pyrazinyl]-2-methylpiperazine, succinate], the Hygroscopicity result in data set [2] (salts of Example 2C) was “very hygroscopic and deliquescent”. Further, the “solubility (in words, comparison of salts)” value in the data set “Solubility” (salts of Example 2B) is reported as “higher than the fumarate salt”. In data set [6], the “intrinsic dissolution rate (in words, order)” value is on record as “base<fumarate<succinate”.

Turning to “(2R)-1-(3-{2-[(2-ethoxy-3-pyridinyl)oxy]ethoxy}-2-pyrazinyl)-2-methylpiperazine, fumarate [reference compound]”, in data set [1], the “Crystallinity (X-Rays)” value is reported as “lower crystallinity”. Also, the Hygroscopicity result in data set [2] (setting [9]) is reported as “hydrate conversion”. In addition, in [4], the Chemical stability entry was “less stable”.

As to `C[C@@H]1CNCCN1c1nccnc1OCCOc1cccnc1.O=C(O)C[C@H](O)C(=O)O` [Example 3A, (2R)-methyl-1-{3-[2-(3-pyridinyloxy)ethoxy]-2-pyrazinyl}piperazine, L-malate salt], the “Crystallinity (X-Rays)” value in data set [1] (L-malate salt) was “higher crystallinity”; in data set [1] (setting [11]), “Positive results; also recorded: high crystallinity”. The “behavior upon exposition to 40° C./75% RH” value in data set [2] (salts of Example 2A) is “good behavior”. For the same compound, the Hygroscopicity result in data set [2] (salts of Example 2A, DVS, storage at RT/different RHs, L-malate salt) is reported as “less hygroscopic”; in data set [2] (salts of Example 2A, DVS, storage at RT/different RHs, listed as L-malate, L-malate salt) it was “low hygroscopicity”. Also, the Chemical stability result in data set [4] (L-malate salt) is on record as “higher chemical stability”; in data set [4] (setting [11]) it was “Positive data; also recorded: high chemical stability”. Further, the Polymorphism result in data set [5] is given as “did not show other polymorphs”. For the same compound, the Toxicological acceptability entry in data set [7] (salts of Example 2A) was “low toxicity”.

Turning to `CNCCC(Oc1ccc(C(F)(F)F)cc1)c1ccccc1` (stereo not drawn) [fluoxetine], the weight reduction result in data set [3] is “weight reduction”.

In turn, `CCOc1ncccc1OCCOc1nccnc1N1CCNC[C@H]1C.O=C(O)CCC(=O)O` had a melting point of 116 to 132 °C.

Regarding “(2R)-1-[3-(2-{[2-(2-dimethylaminoethoxy)-3-pyridinyl]oxy}ethoxy)-2-pyrazinyl]-2-methylpiperazine, terephthalate”, the “Crystallinity (Powder X-Ray Diffraction)” value in data set [1] is “predominantly crystalline”. In addition, the Hygroscopicity result in [2] (salts of Example 2C) was “hight (deliquescent)”. In the data set “Solubility” (setting [10]), the solubility is below 1 mg/mL.

In the case of `CCOc1ncccc1OCCOc1nccnc1N1CCNC[C@H]1C` [Example 2B, (2R)-1-(3-{2-[(2-ethoxy-3-pyridinyl)oxy]ethoxy}-2-pyrazinyl)-2-methylpiperazine], the “intrinsic dissolution rate (in words, order)” value in data set [6] is on record as “base<fumarate<succinate”.

Turning to `C[C@@H]1CNCCN1c1nccnc1OCCOc1cccnc1OCCN(C)C.O=C(O)CC(O)(CC(=O)O)C(=O)O` [citrate, (2R)-1-[3-(2-{[2-(2-dimethylaminoethoxy)-3-pyridinyl]oxy}ethoxy)-2-pyrazinyl]-2-methylpiperazine, citrate], in data set [1], the “Crystallinity (Powder X-Ray Diffraction)” value is listed as “practically amorphous”. Besides, the Hygroscopicity entry in data set [2] (salts of Example 2C) was “very hygroscopic and deliquescent”.

In the case of `C[C@@H]1CNCCN1c1nccnc1OCCOc1cccnc1OCCN(C)C.O=C(O)[C@@H](O)[C@H](O)[C@H](O)[C@@H](O)C(=O)O` [galactareate, (2R)-1-[3-(2-{[2-(2-dimethylaminoethoxy)-3-pyridinyl]oxy}ethoxy)-2-pyrazinyl]-2-methylpiperazine, galactareate (mucic acid salt)], the “Crystallinity (Powder X-Ray Diffraction)” value in data set [1] was “partially amorphous”.

Regarding `CCOc1ncccc1OCCOc1nccnc1N1CCNC[C@H]1C.O=C(O)/C=C/C(=O)O` [fumarate, (2R)-1-(3-{2-[(2-ethoxy-3-pyridinyl)oxy]ethoxy}-2-pyrazinyl)-2-methylpiperazine, fumarate, reference compound], the entries for the “degree of crystallinity (Powder X-Ray Diffraction)” value in [1] and in data set [1] (listed as fumarate salt) were “succinate>acetate>fumarate” and “inferior to that of the succinate salt”, respectively. For the same compound, the solubility in “Solubility” (0.9% w/w NaCl, saline or isotonic) is above 93 mg/mL; in the data set “Solubility” (phosphate buffer, pH 7.4, aqueous buffer), above 68 mg/mL. Also, the “solubility (in words, comparison of salts)” value in the data set “Solubility” (salts of Example 2B) was “inferior to that of the succinate salt”. Moreover, the “intrinsic dissolution rate (in words, order)” value was “base<fumarate<succinate” in data set [6] (fumarate) and “inferior to that of the succinate salt” in data set [6] (listed as fumarate salt, fumarate).

Take `C[C@@H]1CNCCN1c1nccnc1OCCOc1cccnc1.Cl` [hydrochloride, (2R)-methyl-1-{3-[2-(3-pyridinyloxy)ethoxy]-2-pyrazinyl}piperazine, hydrochloride, reference compound]: the “Crystallinity (X-Rays)” value in data set [1] was “lower crystallinity”. In addition, the Hygroscopicity entry in data set [2] (setting [9]) is recorded as “deliquescent”.

Compound `C[C@@H]1CNCCN1c1nccnc1Cl.Cl` [Example 9, (2R)-1-(3-chloro-2-pyrazinyl)-2-methylpiperazine, hydrochloride] returned a melting point of 209 to 210.5 °C. Besides, the stability for storage entry in data set [8] is recorded as “considerably more stable”.

Take “(2R)-1-[3-(2-{[2-(2-dimethylaminoethoxy)-3-pyridinyl]oxy}ethoxy)-2-pyrazinyl]-2-methylpiperazine, 1,5-naphthalenedisulfonate”: in [1], the “Crystallinity (Powder X-Ray Diffraction)” value is “predominantly crystalline”. In data set [2] (salts of Example 2C), the Hygroscopicity result is “moderate”. Also, the solubility in “Solubility” (salts of Example 2C, medium not stated) was above 540 mg/mL.
